Laboratory results published in publication PMC11003996 (Cell Discovery, 2024).
“And” between values parts separate entries of the source, which are not always exact repeats. Equal entries are not always repeated.

Assays:
[1] = tested on: SARS-CoV-2 3CLpro L50F/E166V in HEK 293T cells; type: cell-based
[2] = tested on: SARS-CoV-2 3CLpro T25I; type: biochemical
[3] = tested on: SARS-CoV-2 3CLpro T25V; type: biochemical
[4] = tested on: SARS-CoV-2 3CLpro M49I; type: biochemical
[5] = tested on: SARS-CoV-2 3CLpro T25V in HEK 293T cells; type: cell-based
[6] = tested on: SARS-CoV-2 3CLpro M49I in HEK 293T cells; type: cell-based

In the case of `CC(C)(C)[C@H](NC(=O)C(F)(F)F)C(=O)N1C[C@H]2[C@@H]([C@H]1C(=O)N[C@H](C#N)C[C@@H]1CCNC1=O)C2(C)C` [nirmatrelvir], the “Inhibition of 3CLpro in HEK 293T cells: Fold change in IC50 (relative to WT)” value [1] is reported as 18.4.
With `Cn1cnc(Cn2c(=O)[nH]/c(=N\c3cc4cn(C)nc4cc3Cl)n(Cc3cc(F)c(F)cc3F)c2=O)n1` [ensitrelvir] the “Fold change in IC50 (relative to WT)” value [2] was 3.2, the “Fold change in IC50 (relative to WT)” value [3] was 5.7 and the “Fold change in IC50 (relative to WT)” value [4] was 4.5. The “Inhibition of 3CLpro in HEK 293T cells: Fold change in IC50 (relative to WT)” value [5] was 3.3 and the “Inhibition of 3CLpro in HEK 293T cells: Fold change in IC50 (relative to WT)” value [6] was 21.8 and ~20.
